Test [1] addresses T1, PH1 domain of AFAP-110 (Gallus gallus, UniProt Q90738).
T1 construct: AFAP-110 contains two PH domains, one amino terminal (PH1) and the other carboxy terminal (PH2); made in house; host or cells: bacteria
The test can be described thus: Lipid binding assay (Far Western), GST-PH1. The conditions noted are these: 0.5 μg/ml fusion protein, lipids spotted on membrane. As for the experimental part:
FIG. 5: The phospholipid binding properties of the PH domains of AFAP-110. A) Pleckstrin homology fusion proteins, GST-PH1, GST-PH2 and GST-DAPP1, were purified from bacteria by affinity chromatography. Phospholipids were spotted onto PVDF membranes as described in the methods section. The membranes were incubated overnight with 0.5 μg/ml • GST-PH1, GST-PH2 or GST-DAPP1. Washed membranes were incubated with anti-GST antibody and exposed to film.
B) Pleckstrin homology fusion protein, GST-PH1, was purified from bacteria by affinity chromatography. Two-fold changes in concentration (1.6 pg-100.0 pg) of phospholipids were spotted onto PVDF membranes as described in the methods section. The PIP arrays were incubated with 0.5 μg/ml fusion protein and probed with anti-GST antibody.
Pleckstrin homology (PH) fusion proteins GST-PH1, GST-PH2 and GST-DAPP1, were purified from bacteria by affinity chromatography. A Far Western Blot procedure was used for detecting the fusion protein binding to nitrocellulose immobilized phospholipids (Stevenson, J. Met. al., 1998); PIP strips and PIP arrays were purchased from Echelon, Inc. Overlay assays measured the relative amounts of GST-tagged fusion protein bound to spotted phospholipids. A plasmid encoding GST-DAPP1 previously shown to bind Ptdlns-3,4-P2 and Ptdlns-3,4,5-P3 (Dowler, S. et. al., 1999) was used as a control, kindly provided by Mark Lemmon (Lemmon, M. A., 2003). The membranes were wetted with methanol and then transferred to blocking solution composed of 3% BSA in TBS containing 1% Tween-20 (TBS-T) for 1 hour at 4° C. Membranes were incubated with 0.5 μg/ml each fusion proteins in TBS-T overnight at 4° C. Following incubation, membranes were rinsed three times with TBS-T, washed for 5 minutes and incubated at 4° C. for 1 hour with anti-GST antibody (1:20000 in TBS-T). Following the standard wash procedure, membranes were incubated at 4° C. for 30 minutes with peroxidase-conjugated secondary antibody (1:30000 in TBS-T). The washed membranes were incubated with chemiluminescence reagent and exposed to X-ray film.

The target in test [2] is T1, PH1 domain of AFAP-110. In words: Lipid sedimentation assay, GST-PH1. Type of test: binding. The conditions noted are these: PC vesicles with lipid 19:1 (PC:PS 7:3), 0.025 mM GST fusion protein. As to the method:
E) Lipid sedimentation assay was performed using pleckstrin homology fusion protein GST-PH1 as described in the methods sections. The GST-PH1 fusion protein has the capacity to co-sediment with several lipids containing vesicles as indicated in the pellet (P). Soluble fractions (S) containing unbound GST-PH1 purified fusion proteins were resolved by SDS-PAGE and detected by Coomassie stain.
A sedimentation assay was used to detect PH domain protein association with membrane phospholipids. Phospholipid stock solutions: 1 mg/ml L-α-Ptdlns-4-P, 1.0 mg/ml 1,2-dipalmitoyl-sn-glycero-3-Ptdlns-3-P, 0.1 mg/ml 1,2-dioleoyl-sn-glycero-3-Ptdlns-3,4-P2, and 1 mg/ml L-α-Ptdlns-4,5-P2 in chloroform:methanol:water (60:30:4). However, 10 mg/ml L-α-phosphatidylinositol, 0.1 mg/ml L-α Ptdlns-3-P, 0.2 mg/ml L-α-Ptdlns-3,4,5-P3, 10 mg/ml L-α-phosphatidylserine, and 10 mg/ml L-α-phosphatidylcholine in chloroform neat. All lipid stocks were purged with dry N2 and stored −20° C. The lipid vesicles were prepared as follows utilizing a sonication method. Briefly, in a heavy walled tube, PC and another stock phospholipid (e.g. Ptdlns, Ptdlns-3-P, Ptdlns-4-P, Ptdlns-3,4-P2, Ptdlns-3,5-P2, Ptdlns-3,4,5-P3, or PC) were combined in a 19:1 molar ratio; PC and PS were combined in a 7:3 molar ratio. Lipids were dried with a stream of N2 and traces of solvent were removed by vacuum and resuspended to 5.2 mM PC in buffer B [10 mM HEPES, pH 7.5, 50 mM KCl, 0.5 mM EGTA, and 1.0 mM MgCl2]. The resulting phospholipid sheets were sonicated to form vesicles. Samples were prepared to contain 1.7 mM vesicle PC and 0.025 mM recombinant GST fusion protein (DAPP1 or PH1) in buffer B. Samples were incubated 60 min and centrifuged with a Beckman Airfuge for 15 min at room temperature. 16% of the supernatant and 100% of the pellet from each sample was used for analysis by Laemmli method of SDS polyacrylamide gel electrophoresis. The gels were stained with SYPRO Orange or Coomassie Blue to visualize the proteins.

In a further test the test system is PI3K. In words: Immunofluorescence of Ptdlns-3,4,5-P3 production in SYF/cSrc cells. It counts as cell-based, mouse. The conditions noted are these: for PMA-induced Ptdlns-3,4,5-P3 production: 100 nM PMA with 6 μM bisindolylmaleimide [I], 50 nM wortmannin, LY294002 or 5 μM PP1. As to the method:
SYF/cSrc cells were serum-starved for 24 hours. Cells stimulated with 10% serum (panels c-f), 100 nM PMA for 5 (panels g-h), or 15 minutes (panels i-j); as well as treated with 100 nM PMA in combination with 6 μM bisindolylmaleimide [I] (panels k-I) or 50 nM wortmannin (panels m-n). Cells treated with 100 nM PMA in combination with 5 μM PP1 (panel o-p) and Ptdlns-3,4,5-P3 levels evaluated. Cells were immunolabeled with a PI-3,4,5-P3-specific antibody (Echelon, Inc.;1:100) and TRITC-phalloidin (1:500). Secondary antibody for anti-PI-3,4,5-P3 (1:100) was Alexa IgM 647 anti-mouse (1:200). Bars represent 20 μm.
(§1) SYF, SYF/cSrc, p85α+/+ and p85−/− cells were cultured in standard culture media. Transient transfections of SYF, SYF/cSrc, p85α+/+ cells for immunofluorescence were carried out using LipofectAMINE™ Reagent (Invitrogen) as per manufacturer's protocol. Briefly, Approximately 5.0-8.0×10^4 cells per well were transfected at 50-70% confluent on coverstips with 2-4 μg of plasmid DNA and incubated for 3-4 hours. Thirty-six hours after transfection, cells were serum starved for 12 hours, treated, and subsequently fixed and permeablized as previously described (Qian, Y. et. al., 1998). Cells were treated with a PKC activator, 100 nM PMA for 5 or 15 minutes or in combination with the following pretreatments; a PKC inhibitor, 6 μM bisindolylmaleimide [I] for six hours; or PI3K inhibitor, 10 μM LY294002 for six hours; 50 nM Wortmannin for 30 minutes; and/or a Src family inhibitor, 5 μM PP1 for six hours. For actin labeling, a 1:500 dilution of TRITC-phalloidin was used as labeled in the figures. Primary antibody concentrations used were diluted in 5% Bovine Serum Albumin (BSA) dissolved in 1× phosphate-buffered saline (PBS): EC10 mAb-1:500; Phospho-Src Family (Y416) pAb-1:250; Anti-PI-3,4,5-P3 mAb-1:100; Anti-AFAP-110 (F1)pAb-1:1000; Anti-cSrc pAb-1:500; Anti-flag-1:1000. All fluorescent secondary and phalloidin antibodies were diluted 1:200 in 5% BSA, and are labeled according to figure legends. Cells were washed and mounted on slides with Fluoromount-G (Fisher). A Zeiss LSM 510 confocal microscope was used to scan images of about 1 μM in thickness. To prevent cross-contamination between the different fluorochromes, each channel was imaged sequentially using the multitrack recording module before merging the images. For all figures, representative cells are shown (>100 cells examined per image shown).
Ptdlns-3,4,5-P3 production was measured using the anti-Ptdlns-3,4,5-P3 antibody (Echelon, inc.) for analysis by immunofluorescence and contrasted with stress filament integrity, measured using TRITC-phalloidin as previously described (Chen, R. et. al., 2002; Hama, H. et. al., 2004). SYF/cSrc cells were left untreated or treated with serum as controls for PI3K activation. […] In addition, SYF/cSrc cells were stimulated with PMA for 5 or 15 minutes.

Test [3] relates to AFAP-110 colocalization with cSrc and cSrc activation. The test can be described thus: Immunofluorescence: PMA-induced colocalization of AFAP-110 with cSrc and cSrc activation in mouse embryo fibroblasts. It counts as cell-based. The settings on record: 100 nM PMA 15 min. As to the method: FIG. 1: LY294002 blocks PMA-induced colocalization between AFAP-110 and cSrc, and subsequent cSrc activation. A) SYF cells transiently co-expressing GFP-AFAP-110 and cSrc were untreated (panels a-d), treated with 100 nM PMA for 15 minutes (panels e-h), or treated with PMA and either 6 μM bisindolylmaleimide (panels i-I), 10 μM LY294002 (panels m-p) or 50 nM Wortmannin (panels q-t). Fixed cells were immunolabeled with avian specific cSrc antibody, EC10 (1:500), and phospho-Src-family (Tyr416) (1:250) as described in the methods section. Secondary antibodies used were Atexa 546 anti-mouse for EC10 and Alexa 647 anti-rabbit for phospho-Src-family (Tyr416). A merged image was generated to determine colocalization between AFAP-110 and cSrc. Bars represent 20 μM.
D) Knockout MEFs (p85−/−) were transfected with GFP-AFAP-110 and cSrc. Fixed cells were immunolabeled with EC10 (1:500) and phospho-Src-family (Tyr416) (1:250) as described in the methods section. Secondary antibodies used were Alexa 546 anti-mouse for EC10 and Alexa 647 anti-rabbit for phospho-Src-family (Tyr416). Cells treated with 100 riM PMA for 15 minutes (panels e-h). Images were merged to determine colocalization of cSrc and GFP-AFAP-110. Bars represent 20 μm. Mouse embryo fibroblast cells that express the p85α isoform of the PI3K regulatory subunit (p85α+/+) were transfected with GFP-AFAP-110 and cSrc. Fixed cells were immunolabeled with EC10 (1:500) and phospho-Src-family (Tyr416) (1:250) as described in the methods section. Secondary antibodies used were Alexa 546 anti-mouse for EC10 and Alexa 647 anti-rabbit for phospho-Src-family (Tyr416). Images were merged to determine colocalization of cSrc and GFP-AFAP-110. Bars represent 20 μm.
as §1
We utilized SYF cell lines as a model system, mouse embryo fibroblasts engineered to contain null mutations in the c-src,fyn, and c-yes genes (Klinghoffer, R. A. et. al., 1999). The cells were transiently co-transfected with constructs that encode cSrc and GFP-tagged AFAP-110, as previously described (Gatesman, A. et. al., 2004). […]

The next test deals with cSrc. The test can be described thus: Immunofluorescence: translocation of cSrc from the perinuclear region to the cell periphery. It counts as cell-based, mouse. The settings on record: SYF cells, 100 nM PMA with 6 μM bisindolylmaleimide or 10 μM LY. As to the method: FIG. 2: Inhibition of PI3K blocks translocation of cSrc from the perinuclear region of mouse embryo fibroblast in response to PMA treatment. SYF and p85−/− null cells were transiently transfected with cSrc and labeled for avian cSrc using EC10, an avian-specific monoclonal antibody (1:500). EC10 was visualized with anti-mouse Atexa Fluor 488 (false colored red for consistency). Cells treated with 100 nM PMA (panel b) induced translocation of cSrc to the cell periphery as indicated by the arrows. However, cells treated with 100 nM PMA in conjunction with 6 μM bisindolylmaleimide (panel c) or 10 μM LY (panel d) blocked the translocation of cSrc as indicated by the arrows. […] (n=nucleus) Bars represent 20 μM.
as §1, with “All fluorescent secondary and phalloidin antibodies were diluted 1:200 in 5% BSA, and are labeled according to figure legends. Cells were washed and mounted on slides with Fluoromount-G (Fisher). A Zeiss LSM 510 confocal microscope was used to scan images of about 1 μM in thickness. To prevent cross-contamination between the different fluorochromes, each channel was imaged sequentially using the multitrack recording module before merging the images. For all figures, representative cells are shown (>100 cells examined per image shown).” left out

Where [4] appears, read: SYF cells co-expressing GFP-AFAP-110 and cSrc, pretreatment 6 μM bisindolylmaleimide, 10 μM LY294002 or 50 nM Wortmannin.

T1 sequence (Q90738 153-249 limits assumed): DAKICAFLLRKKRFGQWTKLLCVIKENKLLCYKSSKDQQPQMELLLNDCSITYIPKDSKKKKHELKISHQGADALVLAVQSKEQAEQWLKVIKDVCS

In the case of phosphatidic acid, at PH1 domain of AFAP-110 [1], the “binding of GST-PH1 to immobilized phospholipid (far western)” value (“binding of GST-PH1” for short) is “better than any other phospholipid analyzed”.

Take `CCCCCCCCCCCCCCCC(=O)OC[C@H](COP(=O)(O)O[C@@H]1[C@H](O)[C@H](OP(=O)(O)O)[C@@H](O)[C@H](O)[C@H]1O)OC(=O)CCCCCCCCCCCCCCC` [Ptdlns-3-P, phosphatidylinositol-3-phosphate]: on PH1 domain of AFAP-110 [1], the “binding of GST-PH1” value is given as “strong binding”. For the same compound, the “binding (co-sedimentation) of GST-PH1 to lipid vesicles containing the lipid” value (“binding (co-sedimentation) of GST-PH1” below) at PH1 domain of AFAP-110 [2] is reported as “did not bind”.

With `Cc1ccc(-c2nn(C(C)(C)C)c3ncnc(N)c23)cc1` [PP1], in the test on PI3K (100 nM PMA with 5 μM PP1), the “PMA-directed changes in stress filaments and cell shape” value was “impeded”. Moreover, the “PMA-induced Ptdlns-3,4,5-P3 production” value with PI3K is “did not block”.

Consider `CN(C)CCCn1cc(C2=C(c3c[nH]c4ccccc34)C(=O)NC2=O)c2ccccc21` [bisindolylmaleimide [I]], for which, in test [3] (setting [4]), the “PMA-induced cSrc activation (phospho-Src-family Tyr416)” value is recorded as “blocked” and the “PMA-induced colocalization of AFAP-110 with cSrc” value is on record as “blocked”. Also, the “PMA-induced associated morphological changes” value in test [3] (SYF cells, pretreatment 6 μM bisindolylmaleimide or 10 μM LY294002) was “blocked”. The “PMA-induced translocation of cSrc from the perinuclear region to the cell periphery” value with cSrc is listed as “blocked”. For the same compound, the “PMA-induced Ptdlns-3,4,5-P3 production” value in the test on PI3K was “blocked”.

For Lysophosphatidic acid, at PH1 domain of AFAP-110 [1], the “binding of GST-PH1” value is recorded as “not recognized”.

Regarding Phosphatidylethanolamine, the “binding of GST-PH1” value at PH1 domain of AFAP-110 [1] was “not recognized”.

Regarding phosphatidylinositol, the “binding of GST-PH1” value at PH1 domain of AFAP-110 [1] is “did not bind”.

phosphatidylserine: the “binding of GST-PH1” value at PH1 domain of AFAP-110 [1] is recorded as “had the capacity to recognize”. Moreover, the “binding (co-sedimentation) of GST-PH1” value on PH1 domain of AFAP-110 [2] was “has the capacity to bind”.

For “phosphatidylinositol-5-phosphate [Ptdlns-5-P]”, on PH1 domain of AFAP-110 [1], the “binding of GST-PH1” value is on record as “strong binding”. The “binding (co-sedimentation) of GST-PH1” value at PH1 domain of AFAP-110 [2] is recorded as “has the capacity to bind”.

As for “phosphatidylinositol-4-phosphate [Ptdlns-4-P]”, on PH1 domain of AFAP-110 [1], the “binding of GST-PH1” value was “strong binding”. Besides, the “binding (co-sedimentation) of GST-PH1” value on PH1 domain of AFAP-110 [2] is given as “has the capacity to bind”.

The values above are taken from patent US20080234232A1, “Methods and compositions for targeting AFAP” (priority 2007, published 2008).
